Reference: US10064826B2, “Direct compression and dry granulation processes for preparing carglumic acid tablets having less impurities than those produced by wet granulation process” (Navinta, LLC, priority 2013, dated 2018)

Assay: Stability under stress conditions (alkaline, acidic, light, oxidizing medium)
Format: physicochemical
Conditions: light or hydrogen peroxide
Experimental: Both batches of carglumic acid tablets from Examples 1 and 2 are also evaluated for stability under stress conditions.
Principal degradation products are hydantoin-5-propionic acid (“5-HPA”) and diaza-1,3-dione-2,4-carboxy-7-cycloheptane. Among them, 5-HPA is toxic and thus it must be controlled below 0.1%. L-Pyroglutamic acid is another common impurity in the carglumic acid tablet.

NC(=O)N[C@@H](CCC(=O)O)C(=O)O [Carglumic acid, (2S)-2-(carbamoylamino)pentanedioic acid]
Degradation when exposed to light or an oxidizing medium: slowly degraded
